Laboratory results from article PMC3864238 (Pharmaceutics, 2011).

Columns and labels:
[1] = tested on: MRP; parameters: method as in PMID 17328866, PMID 17202245, PMID 19075072; conditions: cited from earlier work
[2] = tested on: PBMCs; experiment: Cellular association ratio (CAR) of radiolabelled drugs in PBMCs, drug-drug interaction; assay type: in vitro ADME, human; conditions: for effect of incubation at 4 °C on cell-associated concentration / cellular association ratio (CAR): PBMCs; for effect of incubation at 4 °C on cell-associated concentration: 4 °C vs 37 °C; for effect of unlabelled drug on CAR of [^3H]-ddI: 1 μM [^3H]-ddI; for effect of unlabelled drug on CAR of [^3H]-ddI / effect of unlabelled drug on CAR of [^3H]-TDF: dI 100 μM; for cellular association ratio (CAR): 1 μM labelled drug, 30–45 min, no interacting drug, mean ± S.D.; for effect of unlabelled drug on CAR of [^3H]-TDF: 1 μM [^3H]-TDF
Procedure: 11 PBMC samples were isolated from blood buffy coats using Lymphoprep (Alexis-sheild, Oslo, Norway), following the manufacturer's instructions. An aliquot of the PBMC samples were cryopreserved in fetal calf serum containing 10% dimethyl sulphoxide for batch analysis of membrane proteins by flow cytometry.
We also used 50 μM dipyridamole, 100 μM of deoxycytidine (dC), deoxyinosine (dI) and deoxyguanosine (dG) as positive controls to inhibit the transport of the drugs. The concentrations used of these inhibitors were based on previous observations. […] In a limited number of PBMC samples, we investigated the effects of two drug combinations on the uptake of labelled compounds as described above. The incubations were terminated by centrifugation (15,000 g, 1 min at 0 °C). A-100 μL aliquot of the supernatant was counted for radioactivity and the cell pellets were washed three times in ice-cold phosphate buffered saline followed by rapid centrifugation before the pellets were solubilised in 100 μL of distilled water as described previously and counted for radioactivity.

[3] = Octanol-saline partition coefficient; assay type: physicochemical; conditions: octanol/phosphate buffered saline; radiolabelled drug 10-31 nM
Procedure: Briefly, an equal volume of octanol and phosphate buffered saline (PBS) were presaturated by vigorously vortexing them for 5 min. The suspension was allowed to settle for 10 min before the upper saturated octanol layer was carefully removed and stored in a separate tube. […] Then 540 μL aliquots of each compound were added to an equal volume of presaturated octanol and vortexed for 5 min. The samples were centrifuged (1000 g for 5 min). The concentrations of radiolabelled drug in a volume of the octanol (upper layer) and in a similar volume of saline (lower layer) were measured using scintillation counting. The octanol-saline partition coefficient was determined as a ratio of radiolabelled drug in the octanol phase to radiolabelled drug concentration in the saline phase.

[4] = tested on: CEM, CEMVBL (P-gp-overexpressing), CEME1000 (MRP1-overexpressing) and U937 cells; experiment: Preliminary transport experiments in cell lines; assay type: in vitro ADME; conditions: data not shown; for concentration-dependent effect of unlabelled drug on accumulation of the labelled drugs: 0-100 μM unlabelled drug, CEM, CEMVBL, CEME1000 and U937 cells
[5] = tested on: PBMCs; experiment: Cell fractionation: membrane-bound and intracellular radiolabelled drug in PBMCs; assay type: in vitro ADME, human; conditions: 50 μM ABC
Procedure: In a separate experiment, cells were incubated with the tritiated compounds ([^3H]-3TC, -ddI and -TDF) in the absence or presence of 50 μM ABC as described. The assay was terminated by rapid centrifugation in a chilled microcentrifuge and the cell pellets were washed three times in ice-cold PBS as described, followed by three times of rapid freezing in liquid nitrogen and thawing at room temperature. The suspension was layered on top of 1 mL of ice-cold 42% percoll solution containing 0.25 M sucrose, 1.5 mM magnesium chloride, pH 7.1, and centrifuged (12,000 g, 30 min at 4 °C). After centrifugation, the radioactivity in the clear supernatant (assumed as intracellular drug) and in the pellet/debris, harvested from the bottom of the gradient (assumed as membrane-bound drug) were determined by scintillation counting.

[6] = tested on: P-gp; parameters: method as in PMID 11145192; conditions: cited from earlier work
[7] = tested on: BCRP; parameters: method as in PMID 17202245; conditions: cited from earlier work
[8] = tested on: P-gp; conditions: cited from earlier work
[9] = tested on: guinea-pig brain perfusion and choroid plexus models; conditions: cited from earlier work
[10] = unlabelled drugs 50 μM, dipyridamole 50 μM

| Structure (SMILES) | inhibition of MRP activity [1] | effect of incubation at 4 °C on cell-associated concentration [2] | Partition coefficient (mean ± SD) [3] | concentration-dependent effect of unlabelled drug on accumulation of the labelled drugs [4] | intracellular drug concentration, effect of ABC [5] | membrane-bound drug concentration, effect of ABC [5] | also measured |
| --- | --- | --- | --- | --- | --- | --- | --- |
| Nc1ccn([C@@H]2CS[C@H](CO)O2)c(=O)n1 [3TC, lamivudine] | inhibited | significantly (P < 0.001) reduced at 4 °C | 0.117 ± 0.0049 | no concentration-dependent effects | unaffected | significantly (P < 0.05) decreased | P-gp substrate ([4]; preliminary studies): not a P-gp substrate; P-gp substrate [6]: not a substrate |
| CC(C)OC(=O)OCOP(=O)(CO[C@H](C)Cn1cnc2c(N)ncnc21)OCOC(=O)OC(C)C.O=C(O)/C=C/C(=O)O [TDF, Tenofovir disoproxil fumarate] | inhibited | significantly (P < 0.001) reduced at 4 °C | – | no concentration-dependent effects | unaffected | unaffected | BCRP inhibitory effect [7]: devoid of any BCRP inhibitory effect; effect of unlabelled drug on CAR of [^3H]-3TC ([2]; 1 μM [^3H]-3TC, unlabelled drugs 50 μM, dipyridamole 50 μM, dC 100 μM): significantly (P < 0.05) reduced uptake; effect of unlabelled drug on CAR of [^3H]-ddI [2, 10]: no effect; cellular association ratio (CAR) [2]: 2.20 ± 0.29; inhibition of P-gp activity [8]: inhibited |
| OC[C@@H](O)[C@@H](O)[C@H](O)[C@H](O)CO [[^14C]-Mannitol, mannitol] | – | – | 0.0022 ± 0.0001 | – | – | – | – |
| OCCN(CCO)c1nc(N2CCCCC2)c2nc(N(CCO)CCO)nc(N3CCCCC3)c2n1 [dipyridamole] | – | – | – | – | – | – | effect of unlabelled drug on CAR of [^3H]-TDF [2, 10]: unaffected |
| Nc1nc(NC2CC2)c2ncn([C@H]3C=C[C@@H](CO)C3)c2n1 [ABC, abacavir] | inhibited | did not affect | 7.065 ± 0.44 | no concentration-dependent effects | – | – | BCRP inhibitory effect [7]: inhibits; effect of unlabelled drug on CAR of [^3H]-ddI [2, 10]: no effect; cellular association ratio (CAR) [2]: 7.62 ± 1.32; inhibition of P-gp activity [8]: inhibited; effect on intracellular accumulation of [^3H]-ddI [9]: increased |
| O=c1[nH]cnc2c1ncn2[C@H]1CC[C@@H](CO)O1 [ddI, didanosine] | – | significantly (P < 0.001) reduced at 4 °C | – | – | significantly (P < 0.05) decreased | unaffected | – |
| OC[C@H]1O[C@@H](n2cnc3c(O)ncnc32)C[C@@H]1O [dI, deoxyinosine] | – | – | – | – | – | – | effect of unlabelled drug on CAR of [^3H]-TDF [2, 10]: unaffected |
